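How tested: cells in 96-well plates exposed to compound for 48 hours at five concentrations. Here, GI50 denotes the concentration required for 50% inhibition of growth. TGI: concentration producing complete growth inhibition.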
Legend:
Assay in all cases: growth of human tumour cells (NCI), 48 h
HT29 colon = system: HT29 colon
NCI-H460 lung = system: NCI-H460 lung
LOX IMVI melanoma = system: LOX IMVI melanoma
HCC-2998 colon = system: HCC-2998 colon
HCT-15 colon = system: HCT-15 colon
SK-OV-3 ovarian = system: SK-OV-3 ovarian
SF-539 CNS = system: SF-539 CNS
UACC-62 melanoma = system: UACC-62 melanoma
TK-10 renal = system: TK-10 renal
SN12C renal = system: SN12C renal

Row | Structure (SMILES) | TGI (HT29 colon) [µM] | TGI (NCI-H460 lung) [µM] | TGI (LOX IMVI melanoma) [µM] | TGI (HCC-2998 colon) [µM] | TGI (HCT-15 colon) [µM] | TGI (SK-OV-3 ovarian) [µM] | TGI (SF-539 CNS) [µM] | TGI (UACC-62 melanoma) [µM] | TGI (TK-10 renal) [µM] | TGI (SN12C renal) [µM] | GI50 (LOX IMVI melanoma) [µM] | GI50 (SK-OV-3 ovarian) [µM] | GI50 (SF-539 CNS) [µM] | GI50 (UACC-62 melanoma) [µM] | GI50 (TK-10 renal) [µM] | GI50 (HT29 colon) [µM] | GI50 (NCI-H460 lung) [µM] | GI50 (HCC-2998 colon) [µM] | GI50 (HCT-15 colon) [µM] | GI50 (SN12C renal) [µM]
1 | C/C(=N\NC(=S)N1CCOCC1)c1nc2ncccc2[nH]1 | > 100 | > 100 | > 100 | > 100 | > 100 | > 100 | 51.4 | > 100 | > 100 | > 100 | – | – | – | – | – | – | – | – | – | –
2 | Cc1cc(Nc2ccc(Cl)cc2)nc(NCCCNc2ccnc3cc(Cl)ccc23)n1 | – | – | 3.18 | – | – | 3.01 | 3.13 | 3.58 | 3.19 | – | 1.64 | 1.65 | 1.65 | 1.79 | 1.73 | – | – | – | – | –
3 | NC(Cc1ccccc1CP(=O)(O)O)C(=O)O (stereo unspecified) | > 100 | > 100 | > 100 | > 100 | > 100 | > 100 | > 100 | > 100 | > 100 | > 100 | – | – | – | – | – | – | – | – | – | –
4 | CC(C)=CCC/C(C)=C/C=C/C(C)=C/C1C[C@@]2(C(O)O1)[C@H](CCCO)/C(=C(/C)C=O)CC[C@]2(C)O (stereo partly specified) | 33.3 | 25.5 | 28 | 29.4 | 31 | – | 25 | – | 62.8 | 30.8 | – | – | – | – | – | – | – | – | – | –
5 | COc1cc2c(cc1OCCCOc1ccc(-c3cc4ccccc4c4ccccc34)cc1)N=C[C@@H]1CCCN1C2=O | 2.11 | 2.21 | 2.19 | 2.45 | 2.26 | 3.26 | 2.92 | 2.09 | 1.79 | 1.84 | 1.02 | 1.6 | 1.58 | 0.632 | 0.646 | 0.899 | 1.04 | 1.21 | 0.896 | 0.518
6 | CCOC(=O)c1csc(NC(=O)C(C)N2CCOCC2)n1 (stereo unspecified) | > 100 | > 100 | > 100 | > 100 | > 100 | > 100 | > 100 | > 100 | > 100 | – | – | – | – | – | – | – | – | – | – | –
7 | COC(=O)C(NC(=O)c1ccccc1)C(c1c(O)cc(O)cc1O)P(=O)(OC)OC (stereo unspecified) | > 100 | > 100 | > 100 | > 100 | > 100 | > 100 | > 100 | > 100 | > 100 | > 100 | – | – | – | – | – | – | – | – | – | –
8 | COc1cc(/C=C2/Oc3c(OC)cccc3C2=O)ccc1O | > 100 | > 100 | > 100 | > 100 | > 100 | > 100 | – | > 100 | > 100 | > 100 | – | – | – | – | – | – | – | – | – | –

Reference: PubChem BioAssay (NCI)
